Measured values reported in patent publication US20210107993A1, “CARTYRIN COMPOSITIONS AND METHODS FOR USE” (Poseida Therapeutics, Inc., priority 2018, published 2021).

Key:
cells [1] = experiment: AP1903 amount for effective signaling of cells in vitro; type: cell-based; conditions: 1600 Da MW
Protocol: The fixed dose of AP1903 for injection used, for example, may be 0.4 mg/kg intravenously infused over 2 hours. The amount of AP1903 needed in vitro for effective signaling of cells is 10-100 nM (1600 Da MW). This equates to 16-160 μg/L or 0.016-1.6 μg/kg (1.6-160 μg/kg). Doses up to 1 mg/kg were well-tolerated in the Phase I study of AP1903 described above. Therefore, 0.4 mg/kg may be a safe and effective dose of AP1903 for this Phase I study in combination with the therapeutic cells.

iC9 safety switch = target: T1, iC9 safety switch (Homo sapiens, UniProt P62942, F37V); experiment: iC9 safety switch test: viability by flow cytometry using 7-AAD after AP1903; type: cell-based
T1 construct: expressed in transfected cells
T1 sequence (P62942 with tags, fused parts or gaps F37V): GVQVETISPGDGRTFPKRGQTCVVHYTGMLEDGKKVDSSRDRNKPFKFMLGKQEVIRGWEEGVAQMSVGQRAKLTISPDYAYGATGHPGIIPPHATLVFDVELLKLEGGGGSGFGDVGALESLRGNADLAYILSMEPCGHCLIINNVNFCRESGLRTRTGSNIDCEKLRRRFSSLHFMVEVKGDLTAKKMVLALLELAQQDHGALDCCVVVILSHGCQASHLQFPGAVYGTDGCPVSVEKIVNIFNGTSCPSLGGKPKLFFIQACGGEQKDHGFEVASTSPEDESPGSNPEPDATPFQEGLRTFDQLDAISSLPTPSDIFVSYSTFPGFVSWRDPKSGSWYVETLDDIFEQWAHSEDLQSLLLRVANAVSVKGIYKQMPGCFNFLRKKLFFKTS
Source text: Human pan T-cells were nucleofected using an Amaxa 4D nucleofector with one of four piggyBac transposons. Modified T cells receiving the “mock” condition were nucleofected with an empty piggyBac transposon. Modified T cells received either a piggyBac transposon containing a therapeutic agent alone (a sequence encoding a CARTyrin) or a piggyBac transposon containing an integrated iC9 sequence and a therapeutic agent (a sequence encoding a CARTyrin).
To test the iC9 safety switch, each of the four modified T cells were incubated for 24 hours with 0, 0.1 nM, 1 nM, 10 nM, 100 nM or 1000 nM AP1903 (an induction agent for […]). Viability was assessed by flow cytometry using 7-aminoactinomycin D (7-AAD), a fluorescent intercalator, as a marker for cells undergoing apoptosis.
Cell viability was assessed at day 12 (see FIG. 9). […] Moreover, cell viability was assessed at day 19 (see FIG. 10). […]
A quantification of the aggregated results was performed and is provided in FIG. 11, showing the significant impact of the iC9 safety switch on the percent cell viability as a function of the concentration of the induction agent (AP1903) of the iC9 switch for each modified cell type at either day 12 (FIG. 9 and left graph) or day 19 (FIG. 10 and right graph).

cells [2] = conditions: cited from earlier work
[3] = cited from earlier work
Pan T cells = experiment: Expansion of BCMA CAR-T cells with CSR over 19 day culture; type: cell-based, human; conditions: CSR transient (mRNA) or stable (piggyBac)
Source text: FIG. 36 is a graph showing that delivery of CSR enhances the expansion of CAR-T cells. CSRs were delivered to CAR-T cells either transiently by mRNA or stably by piggyBac™. Pan T cells isolated from the blood of a normal donor were genetically modified using the piggyBac™ DNA modification system and the standard Poseida process. Cells were co-electroporated in a single reaction with mRNA encoding the Super piggyBac transposase enzyme (SPB), a transposon encoding a BCMA CAR and selection gene, along with an additional mRNA encoding a CSR (either CD28z or CD2z; resulting in transient expression) or a CD19 mRNA control, or, with a transposon encoding a BCMA CAR, selection gene and a CSR (either CD28z or CD2z; resulting in stable expression). The cells were subsequently stimulated with agonist mAbs anti-CD2, anti-CD3 and anti-CD28, and were later selected for genetic modification over the course of a 19 day culture period. At the end of the initial culture period all T cells expressed the CAR, indicating successful selection for genetically-modified cells (data not shown). Bars represent total live CAR-T cells in well and numbers indicate fold-enhancement of expansion above CAR-T cells produced in the absence of a CSR or a CD19 mRNA control.

## CC[C@H](C(=O)N1CCCC[C@H]1C(=O)O[C@H](CCc1ccc(OC)c(OC)c1)c1cccc(OCC(=O)NCCNC(=O)COc2cccc([C@@H](CCc3ccc(OC)c(OC)c3)OC(=O)[C@@H]3CCCCN3C(=O)[C@@H](CC)c3cc(OC)c(OC)c(OC)c3)c2)c1)c1cc(OC)c(OC)c(OC)c1 (relative stereo) [AP1903, 2-Piperidinecarboxylic acid, 1-[(2S)-1-oxo-2-(3,4,5-trimethoxyphenyl)butyl]-, 1,2-ethanediylbis[imino(2-oxo-2,1-ethanediyl)oxy-3,1-phenylene[(1R)-3-(3,4-dimethoxyphenyl)propylidene]]ester, [2S-[1(R*),2R*[S*[S*[1(R*),2R*]]]]]-(9C1)]
Cells [1]
  amount needed in vitro for effective signaling of cells, converted: 16 to 160 µg/L
iC9 safety switch; T cells containing iC9 construct, 24 hours incubation
  concentration at which AP1903 induces apoptosis (lowest concentration of the study): ≤ 0.1 nM
Cells [2]
  amount needed in vitro for effective signaling of cells: 10 to 100 nM
[3]; 0.01, 0.05, 0.1, 0.5 and 1.0 mg/kg IV over 2 hours
  safety and tolerability: safe and well tolerated at all dose levels
[3]; 0.01-1.0 mg/kg infused IV over 2 hours, healthy volunteers
  mean Cmax: 10 to 1275 ng/mL
[3]; 0.01-1.0 mg/kg
  plasma levels versus dose: directly proportional to dose
[3]; Phase I study
  well-tolerated dose: up to 1 mg/kg
[3]; after initial infusion period
  plasma level as % of maximal concentration, 0.5 hours post-dose: approximately 18%
  plasma level as % of maximal concentration, 2 hours post-dose: ~7%
  plasma level as % of maximal concentration, 10 hours post-dose: ~1%
[3]; human, in vivo
  pharmacokinetic profile: favorable pharmacokinetic profile

## CD28z CSR: chimeric stimulatory receptor: wild type CD28 and CD3z intracellular stimulation domain, SEQ ID NO: 17910
Pan T cells
  expansion of CAR-T cells: a greater degree of expansion of the CAR-T cells

## iC9 safety switch: ligand binding region (FKBP12 F36V), a linker, and a truncated caspase 9 polypeptide (SEQ ID NO: 18032)
iC9 safety switch; with induction agent AP1903, by day 12 post-nucleofection
  apoptosis induced by presence of the iC9 safety switch: induces apoptosis in a significant majority of cells

B1: CD2z CSR: chimeric stimulatory receptor: wild type CD2 and CD3z intracellular stimulation domain, SEQ ID NO: 17912 (protein)
chain: MSFPCKFVASFLLIFNVSSKGAVSKEITNALETWGALGQDINLDIPSFQMSDDIDDIKWEKTSDKKKIAQFRKEKETFKEKDTYKLFKNGTLKIKHLKTDDQDIYKVSIYDTKGKNVLEKIFDLKIQERVSKPKISWTCINTTLTCEVMNGTDPELNLYQDGKHLKLSQRVITHKWTTSLSAKFKCTAGNKVSKESSVEPVSCPEKGLDIYLIIGICGGGSLLMVFVALLVFYITKRKKQRSRRNDEELETRAHRVATEERGRKPHQIPASTPQNPATSQHPPPPPGHRSQAPSHRPPPPGHRVQHQPQKRPPAPSGTQVHQQKGPPLPRPRVQPKPPHGAAENSLSPSSNRVKFSRSADAPAYKQGQNQLYNELNLGRREEYDVLDKRRGRDPEMGGKPRRKNPQEGLYNELQKDKMAEAYSEIGMKGERRRGKGHDGLYQGLSTATKDTYDALHMQALPPR
Pan T cells
  expansion of CAR-T cells: a greater degree of expansion of the CAR-T cells
